Test systems include MDA-MB-435; MDA-MB-231; SK-OV-3; PC-3; MCF7; HOP-92; SW-620; UO-31; ACHN; SK-MEL-5; KM12; Hs-578T; M14; OVCAR-8; U-251; HCC 2998; SK-MEL-2; OVCAR-5; HT-29; K562.
Test in all cases: inhibition of tumour cell growth, NCI panel, 48 h

SMILES strings stand for the structures.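 Tested at 5 concentrations; 48 h exposure; 96-well plates; endpoints linearly interpolated, else capped at highest concentration. GI50: concentration for 50% inhibition of growth.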 The source made the active and inactive calls. Rule as the data show it: active = GI50 up to about 1.1 µM and inactive = higher. Positions of bridges follow the written chain, without caps; N, C: chain ends. Non-standard residues stand in square brackets, D forms with d. Residues, ends and D or L forms follow the SMILES beside them. *: point of attachment. Cbz = O=C(OCc1ccccc1)*; Aib = CC(C)(N)C(=O)O; OBn = c1ccc(CO*)cc1; βAla = NCCC(=O)O Some results are limits rather than exact numbers.

As for `C=C(Nc1nc2ccc(C)cc2s1)C(=O)C(CC)C(=O)C(CC)CC1C(=O)NC(=O)NC1=O` (stereo not given), the GI50 in the test with MDA-MB-435, with MDA-MB-231, with SK-OV-3, with PC-3, with MCF7 and with HOP-92 was > 100 µM (inactive) each time. In addition, the GI50 in the test with SW-620, with UO-31, in the test with ACHN, with SK-MEL-5, in the test on KM12 and in the test on Hs-578T was > 100 µM (inactive) in each case. Moreover, the GI50 in the test on M14, with OVCAR-8, in the test with U-251, in the test with HCC 2998, in the test on SK-MEL-2 and in the test on OVCAR-5 was > 100 µM (inactive) each time.

`COc1ccc(Oc2nc3c(N)cc(C(F)(F)F)cc3nc2-c2ccccc2)cc1`: the GI50 is 46.3 µM (inactive) in the test with MDA-MB-435; 10.8 µM (inactive) with HT-29; 24.8 µM (inactive) with MDA-MB-231; 13.3 µM (inactive) in the test with SK-OV-3; 19.8 µM (inactive) with PC-3; 11.6 µM (inactive) in the test on MCF7. Moreover, the GI50 in the test with HOP-92 was 40.8 µM (inactive); with SW-620 it was 58.1 µM (inactive); in the test with UO-31, 60.8 µM (inactive); in the test with ACHN it was 28.2 µM (inactive); in the test with SK-MEL-5, 29.9 µM (inactive); with KM12, 12.8 µM (inactive). In addition, the GI50 was 16.3 µM (inactive) in the test with Hs-578T; 13.3 µM (inactive) in the test on M14; > 100 µM (inactive) in the test with K562; 26.9 µM (inactive) in the test with OVCAR-8; 35.6 µM (inactive) in the test on U-251; 38.8 µM (inactive) in the test on HCC 2998. The GI50 with SK-MEL-2 is 12.2 µM (inactive).

Regarding `Cc1cccc2c(N)c3cccc(C(=O)NCC[N+](C)(C)Cc4ccc([N+](=O)[O-])n4C)c3nc12`, the GI50 in the test on MDA-MB-435 is 52 µM (inactive); in the test with HT-29 it was 9.33 µM (inactive); in the test on MDA-MB-231, 38.6 µM (inactive); in the test on SK-OV-3, 25.1 µM (inactive); in the test on PC-3, 24 µM (inactive); in the test with MCF7 it was 8.65 µM (inactive). The GI50 with HOP-92 is 33.5 µM (inactive); in the test on SW-620, 18.6 µM (inactive); with UO-31 it was 16.2 µM (inactive); with ACHN, 10.1 µM (inactive); with SK-MEL-5, 21.7 µM (inactive); with KM12, 16.7 µM (inactive). Also, the GI50 is 7.26 µM (inactive) in the test with Hs-578T; 23.3 µM (inactive) in the test with M14; 11.5 µM (inactive) with K562; 18.7 µM (inactive) in the test on OVCAR-8; 8.26 µM (inactive) in the test on U-251; 10.6 µM (inactive) with HCC 2998. Moreover, the GI50 in the test with SK-MEL-2 was 67.6 µM (inactive); in the test with OVCAR-5, 17.6 µM (inactive).

As for `C1CCNCC1.S=C(S)N1CCCCC1`, the GI50 with MDA-MB-435 is 199 µM (inactive); in the test with MDA-MB-231 it was 16.1 µM (inactive); in the test with SK-OV-3, 92.5 µM (inactive); with PC-3, 37.7 µM (inactive); with MCF7 it was 26.4 µM (inactive); in the test with HOP-92, 95.1 µM (inactive). Also, the GI50 is 0.573 µM (active) with SW-620; 58.7 µM (inactive) in the test on UO-31; 87.7 µM (inactive) in the test on ACHN; 1.74 µM (inactive) in the test with SK-MEL-5; 2.26 µM (inactive) with KM12; 163 µM (inactive) in the test on Hs-578T. Besides, the GI50 was 25.4 µM (inactive) in the test with M14; 0.601 µM (active) in the test with K562; 61.1 µM (inactive) in the test on OVCAR-8; 1.46 µM (inactive) in the test with U-251; 100 µM (inactive) with HCC 2998; 85.3 µM (inactive) in the test on SK-MEL-2. Besides, in the test with OVCAR-5, the GI50 is 213 µM (inactive).

`COc1ccc(N2C(=O)CSC2c2cc3cc(Br)ccc3nc2Cl)cc1` (stereo not given): the GI50 with MDA-MB-435 was 23.7 µM (inactive); in the test on HT-29 it was > 50 µM (inactive); in the test on MDA-MB-231, > 50 µM (inactive); in the test on SK-OV-3 it was > 50 µM (inactive); with PC-3, > 50 µM (inactive); in the test on MCF7, 31.7 µM (inactive). The GI50 with HOP-92 was > 50 µM (inactive); in the test on SW-620, > 50 µM (inactive); in the test on UO-31, > 50 µM (inactive); with ACHN it was 19 µM (inactive); with SK-MEL-5 it was 37.4 µM (inactive); in the test on KM12, 20.9 µM (inactive). The GI50 is > 50 µM (inactive) with Hs-578T; 38.5 µM (inactive) in the test with M14; 14.1 µM (inactive) in the test on K562; > 50 µM (inactive) with OVCAR-8; > 50 µM (inactive) in the test on HCC 2998; 35.6 µM (inactive) with SK-MEL-2. Also, the GI50 in the test with OVCAR-5 was > 50 µM (inactive).

As for `C/C=C/C=C/C1=NN(c2cccc(S(=O)(=O)O)c2)C2(C1)SCC(=O)N2c1nc2ccccc2s1` (stereo not given), the GI50 was 36.1 µM (inactive) in the test with MDA-MB-435; > 100 µM (inactive) in the test with HT-29; 56.2 µM (inactive) in the test on MDA-MB-231; 62.2 µM (inactive) with PC-3; 47.4 µM (inactive) in the test on MCF7; 26.2 µM (inactive) in the test on HOP-92. Besides, the GI50 was 72.1 µM (inactive) with SW-620; 47.8 µM (inactive) with UO-31; 76.7 µM (inactive) in the test on ACHN; 85.5 µM (inactive) with SK-MEL-5; 54.6 µM (inactive) in the test on KM12; > 100 µM (inactive) in the test with Hs-578T. In addition, the GI50 was > 100 µM (inactive) with M14; 44 µM (inactive) with K562; 36.2 µM (inactive) with OVCAR-8; 37.9 µM (inactive) with U-251; > 100 µM (inactive) in the test with HCC 2998; 37.8 µM (inactive) in the test on SK-MEL-2. In the test on OVCAR-5, the GI50 was > 100 µM (inactive).

For the molecule `CN(C)CCCNc1cnc2cc3ccccc3cc2n1`, the GI50 with MDA-MB-435 is 24.5 µM (inactive); with HT-29, 15 µM (inactive); with MDA-MB-231, 16.4 µM (inactive); with SK-OV-3, 55.1 µM (inactive); with PC-3, 15.4 µM (inactive); with MCF7, 21.3 µM (inactive). Besides, the GI50 was 23.5 µM (inactive) in the test with HOP-92; 37.4 µM (inactive) with SW-620; 31.2 µM (inactive) in the test with ACHN; 19.6 µM (inactive) with SK-MEL-5; 20 µM (inactive) with KM12; 32.1 µM (inactive) with Hs-578T. Moreover, the GI50 in the test on M14 is 21.4 µM (inactive); with K562, 25.4 µM (inactive); in the test on OVCAR-8, 19.6 µM (inactive); in the test on U-251, 36.5 µM (inactive); in the test with HCC 2998, 17.2 µM (inactive); in the test with SK-MEL-2 it was 19.5 µM (inactive). In addition, in the test with OVCAR-5, the GI50 was 18.6 µM (inactive).

Regarding `C=C(Cl)C(C)(Cl)CCC(Br)C(C)(C)Cl` (stereo not given), the GI50 in the test on MDA-MB-435 is 19.4 µM (inactive); in the test on HT-29, 15.8 µM (inactive); with MDA-MB-231, 15.2 µM (inactive); with SK-OV-3, 12.7 µM (inactive); in the test with PC-3 it was 25.6 µM (inactive); in the test with MCF7 it was 16.6 µM (inactive). The GI50 in the test on HOP-92 is 18.8 µM (inactive); in the test on SW-620 it was 16.9 µM (inactive); in the test on UO-31 it was 15.4 µM (inactive); in the test on ACHN it was 17.5 µM (inactive); in the test with SK-MEL-5 it was 16.9 µM (inactive); in the test on KM12 it was 21.9 µM (inactive). Besides, the GI50 is 21.2 µM (inactive) with Hs-578T; 20 µM (inactive) in the test with M14; 33.9 µM (inactive) in the test on K562; 15.9 µM (inactive) in the test on U-251; 19.5 µM (inactive) in the test with HCC 2998; 19.3 µM (inactive) in the test with SK-MEL-2. In the test with OVCAR-5, the GI50 was 21.5 µM (inactive).

`CC1SCc2nc3ccccc3n21` (stereo not given): the GI50 in the test with MDA-MB-435, in the test on HT-29, with MDA-MB-231, in the test with SK-OV-3, with PC-3 and in the test on MCF7 was > 100 µM (inactive) in each case. Moreover, the GI50 in the test on HOP-92, in the test on UO-31, in the test with ACHN, in the test with SK-MEL-5, in the test on KM12 and in the test with Hs-578T was > 100 µM (inactive) in each case. Also, the GI50 in the test on M14, in the test with K562, in the test on OVCAR-8, in the test with U-251, with HCC 2998 and with SK-MEL-2 was > 100 µM (inactive) throughout. Moreover, in the test with OVCAR-5, the GI50 is > 100 µM (inactive).

As to `CC1(C)NC(=O)C(NC(=O)C(CC(=O)OCc2ccccc2)NC(=O)OCc2ccccc2)CCCCNC(=O)CCNC1=O` (stereo not given) (Cbz-D(OBn)K[Aib][βAla]; lactam 2-C; configuration not given here), the GI50 with MDA-MB-435, in the test with HT-29, with MDA-MB-231, in the test on SK-OV-3, in the test with PC-3 and with MCF7 was > 100 µM (inactive) throughout. In addition, the GI50 with HOP-92, in the test with SW-620, in the test with UO-31, in the test on ACHN, in the test with SK-MEL-5 and with KM12 was > 100 µM (inactive) in each case. In addition, the GI50 in the test on Hs-578T, in the test with M14, in the test on K562, in the test with OVCAR-8, in the test with U-251 and in the test with HCC 2998 was > 100 µM (inactive) throughout. For the same molecule, the GI50 in the test on OVCAR-5 was > 100 µM (inactive).

The values are drawn from ChEMBL document CHEMBL1201862, “PubChem BioAssay data set” (2004).
